The test system of the test is phospho-serine 2056 DNA-PK in HCT116 cells. As to the kind of experiment: DNA-PK phosphorylation at serine 2056 (cellular), ELISA in bleomycin-treated HCT116 cells. The class given is cell-based. The settings on record: read-out: IC50 pDNA-PK. Summed up: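 Test compounds and bleomycin (10 μM) are added to adherent HCT116 cells for 6 h. Detection uses an HRP-based chemiluminescent ELISA, with phospho-DNA-PK signals standardised to total protein.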

Where [1] appears, read: Homo sapiens, HCT-116, cellular DNA-PK phosphorylation at serine 2056, HCT116 cells.
[2] abbreviates: Homo sapiens, HCT-116, 6 h, cellular, HCT116 cells, 10 μM bleomycin, six hours.
Setting [3] is: cellular DNA-PK phosphorylation at serine 2056, HCT116 cells.
[4] abbreviates: Homo sapiens, HCT-116, phospho-serine 2056 DNA-PK, bleomycin-treated HCT116 cells, class symbols A-D.
Where [5] appears, read: Homo sapiens, HCT-116, phospho-serine 2056 DNA-PK, bleomycin-treated HCT116 cells.

The structures appear in SMILES notation. Where two headings read alike, the source gives them in different places. Where only a bound is given, the exact number is not on record here.

Results on 31 molecules are retold here after US11065253B2, “Arylquinazolines” (Merck Patent GmbH, priority 2013, dated 2021).

With `OC(c1cc(-c2ncnc3cc(N4CCOCC4)ccc23)ccc1Cl)c1ncnc2sccc12` (stereo not shown) [Example 430, [2-Chloro-5-(7-morpholin-4-yl-quinazolin-4-yl)-phenyl]thieno[2,3-d}-pyrimidin-4-yl-methanol], under setting [1], the IC50 – broadly, the concentration needed to halve the response being measured – was less than 0.5 µM.

As to `O=c1ccc(C(O)c2cc(-c3ncnc4cc(N5CCOCC5)ccc34)c(F)cc2Cl)nn1C1CC1` (stereo not shown) [Example 95, 6-{[2-Chloro-4-fluoro-5-(7-morpholin-4-yl-quinazolin-4-yl)phenyl]-hydroxymethyl}-2-cyclopropyl-2H-pyridazin-3-one], the half-inhibitory concentration (IC50) under setting [2] was 0.5 to 5 µM.

Turning to `CN(C)C(=O)c1ccc(C(O)c2cc(-c3ncnc4cc(N5CCOCC5)ccc34)c(F)cc2Cl)nn1` (stereo not shown) [Example 50, 6-{[2-Chloro-4-fluoro-5-(7-morpholin-4-yl-quinazolin-4-yl)phenyl]-hydroxymethyl}-pyridazine-3-carboxylic acid dimethylamide], the half-inhibitory concentration (IC50) under setting [2] fell in the range of 10 to 30 µM.

As for `Cc1cncnc1C(C(N)=O)c1cc(-c2ncnc3cc(N4CCOCC4)ccc23)ccc1Cl` (stereo not shown) [Example 378, 2-[2-Chloro-5-(7-morpholin-4-yl-quinazolin-4-yl)-phenyl]-2-(5-methyl-pyrimidin-4-yl)-acetamide (Ena 1)], the half-maximal inhibitory concentration (IC50) under setting [3] lay in the range of 0.5 to 5 µM.

On to `COCCOc1ccc(C(O)c2cc(-c3ncnc4cc(N5CCOCC5)ccc34)c(F)cc2Cl)nn1` (stereo not shown) [Example 112, [2-Chloro-4-fluoro-5-(7-morpholin-4-yl-quinazolin-4-yl)-phenyl]-[6-(2-methoxyethoxy)-pyridazin-3-yl]-methanol], for which the IC50 under setting [4] lay within 0.5 to 5 µM.

On to `OC(c1ccc(F)c(-c2ncnc3cc(N4CCOCC4)ccc23)c1)c1nncc2ccoc12` (stereo not shown) [Example 335, [4-Fluoro-3-(7-morpholin-4-yl-quinazolin-4-yl)-phenyl]furo[2,3-d}-pyridazin-7-yl-methanol], for which the IC50 under setting [5] is less than 0.5 µM.

Take `Cn1c(C(O)c2cc(-c3ncnc4cc(N5CCOCC5)ccc34)c(F)cc2Cl)cccc1=O` (stereo not shown) [Example 383, 6-{[2-Chloro-4-fluoro-5-(7-morpholin-4-yl-quinazolin-4-yl)-phenyl]hydroxy-methyl}-1-methyl-1H-pyridin-2-one (Ena 1)]: the half-inhibitory concentration (IC50) under setting [3] is less than 0.5 µM.

As for `Cc1cncnc1C(O)c1cc(-c2ncnc3cc(N4CCOCC4)ccc23)ccc1Cl` (stereo not shown) [Example 417, [2-Chloro-5-(7-morpholin-4-yl-quinazolin-4-yl)-phenyl]-(5-methyl-pyrimidin-4-yl)-methanol (Ena 2)], the IC50 under setting [1] is 0.5 to 5 µM.

As for `Cc1nccnc1/C(C(=O)O)=C1/C=CC(=O)C(c2ncnc3cc(N4CCOCC4)ccc23)=C1` [Example 331, (3-methyl-pyrazin-2-yl)-[3-(7-morpholin-4-ylquinazolin-4-yl)-4-oxocyclohexa-2,5-dien-(E)-ylidene]-acetic acid], under setting [5], the IC50 was in the range of 5 to 10 µM.

Consider `CNC(=O)C(c1cc(-c2ncnc3cc(N4CCOCC4)ccc23)c(F)cc1Cl)c1nccnc1OC` (stereo not shown) [Example 229, 2-[2-Chloro-4-fluoro-5-(7-morpholin-4-yl-quinazolin-4-yl)-phenyl]-2-(3-methoxypyrazin-2-yl)-N-methyl-acetamide], for which the IC50 under setting [5] fell in the range of 0.5 to 5 µM.

As to `OC(c1cc(-c2ncnc3cc(N4CCOCC4)ccc23)c(F)cc1Cl)c1nccn2cccc12` (stereo not shown) [Example 359, [2-Chloro-4-fluoro-5-(7-morpholin-4-yl-quinazolin-4-yl)-phenyl]pyrrolo[1,2-a]-pyrazin-1-ylmethanol], the IC50 under setting [5] is less than 0.5 µM.

As to `OC(c1ccc(F)c(-c2ncnc3cc(N4CCOCC4)ccc23)c1)c1cncc(F)c1Cl` (stereo not shown) [Example 2, (4-Chloro-5-fluoropyridin-3-yl)-[4-fluoro-3-(7-morpholin-4-ylquinazolin-4-yl)phenyl]methanol], the IC50 under setting [2] was less than 0.5 µM.

Regarding `Cc1nccnc1[C@@H](O)c1ccc(F)c(-c2ncnc3cc(N4CCOCC4)ccc23)c1` [Example 82, (S)-[4-Fluoro-3-(7-morpholin-4-yl-quinazolin-4-yl)-phenyl]-(3-methyl-pyrazin-2-yl)methanol], under setting [2], the IC50 lay within 0.5 to 5 µM.

Consider `Cn1nc(C(C(N)=O)c2ccc(F)c(-c3ncnc4cc(N5CCOCC5)ccc34)c2)ccc1=O` (stereo not shown) [Example 317, 2-[4-Fluoro-3-(7-morpholin-4-yl-quinazolin-4-yl)-phenyl]-2-(1-methyl-6-oxo-1,6-dihydro-pyridazin-3-yl)-acetamide], for which, under setting [5], the 50% inhibitory concentration (IC50) fell in the range of 10 to 30 µM.

For `Cn1nc(C(O)c2cc(-c3ncnc4cc(N5CCOCC5)ccc34)c(F)cc2F)ccc1=O` (stereo not shown) [Example 219, 6-{[2,4-Difluoro-5-(7-morpholin-4-yl-quinazolin-4-yl)-phenyl]hydroxy-methyl}-2-methyl-2H-pyridazin-3-one], under setting [4], the IC50 is 0.5 to 5 µM.

On to `COc1cc(Cl)nnc1C(O)c1cc(-c2ncnc3cc(N4CCOCC4)ccc23)c(F)cc1Cl` (stereo not shown) [Example 8, [2-Chloro-4-fluoro-5-(7-morpholin-4-yl-quinazolin-4-yl)phenyl]-(6-chloro-4-methoxy-pyridazin-3-yl)methanol], for which the IC50 under setting [2] was in the range of 0.5 to 5 µM.

`CSc1ccc(C(O)c2cc(-c3ncnc4cc(N5CCOCC5)ccc34)c(F)cc2Cl)nn1` (stereo not shown) [Example 108, [2-Chloro-4-fluoro-5-(7-morpholin-4-yl-quinazolin-4-yl)-phenyl]-(6-methyl-sulfanylpyridazin-3-yl)methanol]: under setting [4], the half-maximal inhibitory concentration (IC50) is less than 0.5 µM.

With `COc1nccnc1C(C(N)=O)c1cc(-c2ncnc3cc(N4CCOCC4)ccc23)c(F)cc1F` (stereo not shown) [Example 319, 2-[2,4-Difluoro-5-(7-morpholin-4-ylquinazolin-4-yl)phenyl]-2-(3-methoxypyrazin-2-yl)-acetamide], the IC50 under setting [5] lay within 5 to 10 µM.

As for `Cc1nccnc1Cc1ccc(F)c(-c2ncnc3cc(N4CCOCC4)ccc23)c1` [Example 349, 4-[2-Fluoro-5-(3-methyl-pyrazin-2-ylmethyl)phenyl]-7-morpholin-4-yl-quinazoline], the half-inhibitory concentration (IC50) under setting [5] is less than 0.5 µM.

With `COc1ccc(C(O)c2cc(-c3ncnc4cc(N5CCOCC5)cc(F)c34)c(F)cc2Cl)nn1` (stereo not shown) [Example 271, [2-Chloro-4-fluoro-5-(5-fluoro-7-morpholin-4-yl-quinazolin-4-yl)-phenyl]-(6-methoxy-pyridazin-3-yl)-methanol (Ena 1)], the IC50 (phospho-serine 2056 DNA-PK, bleomycin-treated HCT116 cells) was less than 0.5 µM.

For `NC(=O)C(c1ccc(F)c(-c2ncnc3cc(N4CCOCC4)ccc23)c1)c1ncccc1Cl` (stereo not shown) [Example 313, 2-(3-Chloro-pyridin-2-yl)-2-[4-fluoro-3-(7-morpholin-4-yl-quinazolin-4-yl)-phenyl]acetamide], under setting [5], the IC50 was in the range of 5 to 10 µM.

For `Cc1nccnc1C(C(N)=O)c1cc(-c2ncnc3cc(N4CCOCC4)ccc23)ccc1Cl` (stereo not shown) [Example 303, 2-[2-Chloro-5-(7-morpholin-4-yl-quinazolin-4-yl)-phenyl]-2-(3-methyl-pyrazin-2-yl)-acetamide], the IC50 under setting [5] was 5 to 10 µM.

For the molecule `OC(c1ccc(F)c(-c2ncnc3cc(N4CCOCC4)ccc23)c1)c1c(F)cncc1F` (stereo not shown) [Example 1, (3,5-Difluoropyridin-4-yl)-[4-fluoro-3-(7-morpholin-4-ylquinazolin-4-yl)phenyl]methanol], the IC50 under setting [2] is 0.5 to 5 µM.

In the case of `OC(c1cc(-c2ncnc3cc(N4CCOCC4)ccc23)c(F)cc1F)c1nncc2sccc12` (stereo not shown) [Example 341, [2,4-Difluoro-5-(7-morpholin-4-yl-quinazolin-4-yl)-phenyl]thieno[2,3-d}-pyridazin-4-yl-methanol], the concentration for half-maximal inhibition (IC50) under setting [5] was less than 0.5 µM.

For the molecule `OC(c1ccc(F)c(-c2ncnc3cc(N4CCOCC4)ccc23)c1)c1nccnc1I` (stereo not shown) [Example 462, [4-Fluoro-3-(7-morpholin-4-yl-quinazolin-4-yl)-phenyl]-(3-iodo-pyrazin-2-yl)-methanol], the 50% inhibitory concentration (IC50) under setting [3] was less than 0.5 µM.

On to `OC(c1ccc(F)c(-c2ncnc3cc(N4CCOCC4)ccc23)c1)c1ncnc2occc12` (stereo not shown) [Example 434, [4-Fluoro-3-(7-morpholin-4-yl-quinazolin-4-yl)-phenyl]furo[2,3-d}-pyrimidin-4-yl-methanol], for which the half-inhibitory concentration (IC50) under setting [3] is less than 0.5 µM.

As to `CC(C#N)Oc1ccc(C(O)c2cc(-c3ncnc4cc(N5CCOCC5)ccc34)c(F)cc2Cl)nn1` (single isomer, unassigned) [Example 102, 2-(6-{[2-Chloro-4-fluoro-5-(7-morpholin-4-yl-quinazolin-4-yl)-phenyl]hydroxy-methyl}pyridazin-3-yloxy)propionitrile], the concentration for half-maximal inhibition (IC50) (phospho-serine 2056 DNA-PK, bleomycin-treated HCT116 cells, class symbols A-D) was less than 0.5 µM.

`Cn1cnc2ncnc(C(O)c3ccc(F)c(-c4ncnc5cc(N6CCOCC6)ccc45)c3)c21` (stereo not shown) [Example 433, [4-Fluoro-3-(7-morpholin-4-yl-quinazolin-4-yl)-phenyl]-(7-methyl-7H-purin-6-yl)-methanol]: the half-maximal inhibitory concentration (IC50) under setting [1] was in the range of 0.5 to 5 µM.

`COc1cncnc1C(O)c1cc(-c2ncnc3cc(N4CCOCC4)ccc23)ccc1Cl` (stereo not shown) [Example 408, [2-Chloro-5-(7-morpholin-4-yl-quinazolin-4-yl)-phenyl]-(5-methoxy-pyrimidin-4-yl)-methanol (Ena 2)]: the IC50 under setting [1] lay within 0.5 to 5 µM.

Regarding `CN1CCN(c2nccnc2C(O)c2ccc(F)c(-c3ncnc4cc(N5CCOCC5)ccc34)c2)C1=O` (stereo not shown) [Example 424, 1-(3-{[4-Fluoro-3-(7-morpholin-4-yl-quinazolin-4-yl)-phenyl]hydroxy-methyl}pyrazin-2-yl)-3-methyl-imidazolidin-2-one], the IC50 under setting [1] was 10 to 30 µM.

As for `OCCOc1ccc(C(O)c2cc(-c3ncnc4cc(N5CCOCC5)ccc34)c(F)cc2Cl)nn1` (stereo not shown) [Example 116, 2-(6-{[2-Chloro-4-fluoro-5-(7-morpholin-4-yl-quinazolin-4-yl)-phenyl]hydroxy-methyl}pyridazin-3-yl-oxy)ethanol], the half-inhibitory concentration (IC50) under setting [4] was in the range of 0.5 to 5 µM.
